Literature values, collected in article PMC9516332 (Frontiers in Oncology, 2022).
Like-named read-outs stand apart in the source and are kept apart here.

Experiments:
Conditions in all cases: cited from earlier work
[1] = target: T1, panel of 255 wild-type kinases (Homo sapiens, UniProt Q12866)
T1 sequence (Q12866 21-999): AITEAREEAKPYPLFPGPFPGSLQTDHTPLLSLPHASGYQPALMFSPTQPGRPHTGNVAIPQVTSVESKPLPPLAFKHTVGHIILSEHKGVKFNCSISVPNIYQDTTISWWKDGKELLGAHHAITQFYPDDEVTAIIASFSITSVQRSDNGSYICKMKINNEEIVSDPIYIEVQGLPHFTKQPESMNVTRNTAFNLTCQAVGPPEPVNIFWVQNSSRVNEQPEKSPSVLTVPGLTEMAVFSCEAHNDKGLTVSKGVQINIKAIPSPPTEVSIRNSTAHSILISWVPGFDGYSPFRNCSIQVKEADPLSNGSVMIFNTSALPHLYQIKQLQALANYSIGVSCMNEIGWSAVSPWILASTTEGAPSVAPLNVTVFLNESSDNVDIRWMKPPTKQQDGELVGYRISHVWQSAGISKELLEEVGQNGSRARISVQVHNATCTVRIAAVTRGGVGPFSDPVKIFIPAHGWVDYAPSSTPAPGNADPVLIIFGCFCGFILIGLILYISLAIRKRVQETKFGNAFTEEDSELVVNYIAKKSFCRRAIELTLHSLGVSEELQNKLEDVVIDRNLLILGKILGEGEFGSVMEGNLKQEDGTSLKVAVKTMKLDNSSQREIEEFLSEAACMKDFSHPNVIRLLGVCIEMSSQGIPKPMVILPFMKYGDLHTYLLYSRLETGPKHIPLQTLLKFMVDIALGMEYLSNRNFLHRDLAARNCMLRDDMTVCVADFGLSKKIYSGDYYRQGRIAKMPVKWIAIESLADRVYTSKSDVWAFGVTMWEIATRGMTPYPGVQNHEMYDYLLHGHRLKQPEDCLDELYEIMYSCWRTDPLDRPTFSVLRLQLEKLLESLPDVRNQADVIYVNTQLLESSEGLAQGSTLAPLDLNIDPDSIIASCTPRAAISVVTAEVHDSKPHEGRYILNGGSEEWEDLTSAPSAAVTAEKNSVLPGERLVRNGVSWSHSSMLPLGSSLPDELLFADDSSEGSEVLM

[2] = target: T2, panel of 255 wild-type kinases (Homo sapiens, UniProt Q15139)
T2 sequence (Q15139 1-912): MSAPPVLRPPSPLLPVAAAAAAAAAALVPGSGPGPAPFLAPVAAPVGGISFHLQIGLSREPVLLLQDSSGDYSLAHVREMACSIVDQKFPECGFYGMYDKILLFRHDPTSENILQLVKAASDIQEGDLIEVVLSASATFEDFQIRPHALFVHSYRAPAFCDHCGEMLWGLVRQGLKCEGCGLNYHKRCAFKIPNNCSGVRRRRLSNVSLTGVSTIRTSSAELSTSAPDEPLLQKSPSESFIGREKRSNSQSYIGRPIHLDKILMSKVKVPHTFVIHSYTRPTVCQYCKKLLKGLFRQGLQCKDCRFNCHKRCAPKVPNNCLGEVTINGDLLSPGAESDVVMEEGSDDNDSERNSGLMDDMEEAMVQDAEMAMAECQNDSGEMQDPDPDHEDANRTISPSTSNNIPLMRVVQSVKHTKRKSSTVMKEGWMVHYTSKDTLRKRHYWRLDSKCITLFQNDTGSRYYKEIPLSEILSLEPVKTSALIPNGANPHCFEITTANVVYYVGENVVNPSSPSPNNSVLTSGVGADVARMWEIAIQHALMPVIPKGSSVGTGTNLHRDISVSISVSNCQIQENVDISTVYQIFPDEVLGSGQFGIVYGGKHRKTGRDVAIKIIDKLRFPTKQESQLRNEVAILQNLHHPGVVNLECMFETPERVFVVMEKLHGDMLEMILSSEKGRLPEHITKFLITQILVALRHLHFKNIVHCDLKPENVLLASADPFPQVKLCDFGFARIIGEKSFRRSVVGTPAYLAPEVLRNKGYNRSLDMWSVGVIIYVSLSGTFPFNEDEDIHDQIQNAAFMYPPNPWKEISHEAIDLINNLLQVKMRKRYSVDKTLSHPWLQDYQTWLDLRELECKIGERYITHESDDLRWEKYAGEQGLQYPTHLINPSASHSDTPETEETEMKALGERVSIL

[3] = target: panel of 255 wild-type kinases (Homo sapiens, UniProt P08922)
[4] = target: panel of 255 wild-type kinases (Homo sapiens, UniProt Q9UK32)
[5] = target: T3, panel of 255 wild-type kinases (Homo sapiens, UniProt O43781)
T3 sequence (O43781 1-588): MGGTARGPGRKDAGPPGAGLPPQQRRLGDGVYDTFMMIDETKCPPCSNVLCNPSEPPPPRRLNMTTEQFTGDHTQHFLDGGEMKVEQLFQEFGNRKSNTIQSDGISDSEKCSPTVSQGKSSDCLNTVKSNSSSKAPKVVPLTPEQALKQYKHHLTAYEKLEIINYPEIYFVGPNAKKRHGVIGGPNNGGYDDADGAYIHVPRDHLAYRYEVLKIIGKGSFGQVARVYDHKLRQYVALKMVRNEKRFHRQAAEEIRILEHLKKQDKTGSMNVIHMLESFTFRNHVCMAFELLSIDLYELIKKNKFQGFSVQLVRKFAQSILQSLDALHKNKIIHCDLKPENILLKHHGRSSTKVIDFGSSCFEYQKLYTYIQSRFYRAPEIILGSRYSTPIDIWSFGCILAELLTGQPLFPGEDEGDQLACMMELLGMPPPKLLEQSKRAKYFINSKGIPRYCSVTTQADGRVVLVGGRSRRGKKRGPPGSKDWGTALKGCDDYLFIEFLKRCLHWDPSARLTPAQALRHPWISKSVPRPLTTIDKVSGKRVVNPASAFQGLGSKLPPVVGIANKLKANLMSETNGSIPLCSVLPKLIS

[6] = MER, 1 µmol/L single concentration, ref DOI: 10.1158/1535-7163.MCT-18-0877
[7] = kinase PKD1, 1 µmol/L single concentration, ref DOI: 10.1158/1535-7163.MCT-18-0877
[8] = kinase ROS, 1 µmol/L single concentration, ref DOI: 10.1158/1535-7163.MCT-18-0877
[9] = kinase RSK4, 1 µmol/L single concentration, ref DOI: 10.1158/1535-7163.MCT-18-0877
[10] = kinase DYRK3, 1 µmol/L single concentration, ref DOI: 10.1158/1535-7163.MCT-18-0877
[11] = MER, 1 µmol/L single concentration, ref DOI: 10.1371/journal.pone.0092146
[12] = kinase PKD1, 1 µmol/L single concentration, ref DOI: 10.1371/journal.pone.0092146
[13] = kinase ROS, 1 µmol/L single concentration, ref DOI: 10.1371/journal.pone.0092146
[14] = kinase RSK4, 1 µmol/L single concentration, ref DOI: 10.1371/journal.pone.0092146
[15] = kinase DYRK3, 1 µmol/L single concentration, ref DOI: 10.1371/journal.pone.0092146

Structure (SMILES)	%-inhibition, MER [1, 6] [%]	%-inhibition at 1 µmol/L, PKD1 [2, 7] [%]	%-inhibition at 1 µmol/L, ROS [3, 8] [%]	%-inhibition at 1 µmol/L, RSK4 [4, 9] [%]	%-inhibition at 1 µmol/L, DYRK3 [5, 10] [%]	%-inhibition at 1 µmol/L, RSK4 [4, 14] [%]	%-inhibition at 1 µmol/L, DYRK3 [5, 15] [%]	further results
O=C(c1ccc(F)c(F)c1Nc1ccc(I)cc1F)N1CC(O)([C@@H]2CCCCN2)C1 [cobimetinib]	1.18	-5	3	5.52	-3.62			
CC(C)(C)c1nc(-c2cccc(NS(=O)(=O)c3c(F)cccc3F)c2F)c(-c2ccnc(N)n2)s1 [dabrafenib]						2.2	-5.68	%-inhibition, MER [1, 11]: -0.876%; %-inhibition at 1 µmol/L, PKD1 [2, 12]: 83%; %-inhibition at 1 µmol/L, ROS [3, 13]: 8.55%
Cc1cc(Nc2ncc(Cl)c(Nc3ccccc3S(=O)(=O)C(C)C)n2)c(OC(C)C)cc1C1CCNCC1 [ceritinib]	51	27	101	83	-2.12			
CCc1cc2c(cc1N1CCC(N3CCOCC3)CC1)C(C)(C)c1[nH]c3cc(C#N)ccc3c1C2=O [alectinib]	56	2	14	19	8.44			
CCCS(=O)(=O)Nc1ccc(F)c(C(=O)c2c[nH]c3ncc(-c4ccc(Cl)cc4)cc23)c1F [vemurafenib]						-3	5	%-inhibition, MER [1, 11]: 6%; %-inhibition at 1 µmol/L, PKD1 [2, 12]: 43%; %-inhibition at 1 µmol/L, ROS [3, 13]: 2%
COc1cc(N2CCC(N3CCN(C)CC3)CC2)ccc1Nc1ncc(Cl)c(Nc2ccccc2P(C)(C)=O)n1 [brigatinib]								%-inhibition, MER [1]: 89%; %-inhibition at 1 µmol/L, PKD1 [2]: 74%; %-inhibition at 1 µmol/L, ROS [3]: 101%; %-inhibition at 1 µmol/L, RSK4 [4]: 98%; %-inhibition at 1 µmol/L, DYRK3 [5]: 3.23%
CC(=O)Nc1cccc(-n2c(=O)n(C3CC3)c(=O)c3c(Nc4ccc(I)cc4F)n(C)c(=O)c(C)c32)c1 [trametinib]						0.208	-10	%-inhibition, MER [1, 11]: -6.62%; %-inhibition at 1 µmol/L, PKD1 [2, 12]: 9%; %-inhibition at 1 µmol/L, ROS [3, 13]: -0.611%
CC#CC(=O)N1CCC[C@H]1c1nc(-c2ccc(C(=O)Nc3ccccn3)cc2)c2c(N)nccn12 [acalabrutinib]	-3.37	-9.48	1.79	4.21	0.353			
C=CC(=O)Nc1cc(Nc2nccc(-c3cn(C)c4ccccc34)n2)c(OC)cc1N(C)CCN(C)C [osimertinib]	10	22	101	38	21			
CO[C@@H]1[C@H](N(C)C(=O)c2ccccc2)C[C@H]2O[C@]1(C)n1c3ccccc3c3c4c(c5c6ccccc6n2c5c31)C(=O)NC4 [midostaurin]	85							%-inhibition at 1 µmol/L, ROS [3]: 102%
C=CC(=O)N1CCC[C@@H](n2nc(-c3ccc(Oc4ccccc4)cc3)c3c(N)ncnc32)C1 [ibrutinib]	0.565	3.22	5	5.52	-4			
C[C@@H](Oc1cc(-c2cnn(C3CCNCC3)c2)cnc1N)c1c(Cl)ccc(F)c1Cl [crizotinib]						-1.58	14	
